# Values of other authors as cited in patent EP0706556B1, “CLEANING AND DI[…]” (Henkel-Ecolab GmbH & Co. OHG, priority 1993, dated 1995).
smiles,measurement,setting,value
C=O [Formaldehyd],"Konzentration, bei der Augenreizungen auftreten können","exposed persons, certain individuals","≥ 0,4 ppm"
same,"Konzentration, die Lungenödeme verursacht","inhalation, humans",50 ppm
same,"Konzentration, die Tränenfluß verursacht","inhalation, humans","≥ 0,1 ppm"
